What was measured:
Format in all cases: biochemical
Settings in all cases: ADP-Glo SIK kinase assay
SIK1 = biological target: T1, SIK1 (Homo sapiens, UniProt P57059); test: ADP-Glo kinase assay, SIK1
T1 construct: purchased Carna Biosciences 02-131
Procedure, shortened: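 Wells with 1% DMSO or 10 μM staurosporine (final) define the control window. The kinase reaction with substrate and ATP runs 120 min at RT, followed by ADP-Glo detection: ATP depletion (40 min) and ADP-derived luminescence (30 min).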

SIK3 = biological target: T2, SIK3 (Homo sapiens, UniProt Q9Y2K2); test: ADP-Glo kinase assay, SIK3
T2 construct: purchased SignalChem S12-11G-100
Procedure, shortened: (§1)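 ADP-Glo, RT throughout. Enz/substrate + ATP, 120 min; ADP-Glo reagent 40 min (ATP depletion); detection reagent 30 min; luminescence read. Neg ctrl 1% DMSO, pos ctrl 10 μM staurosporine, final concs.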

SIK2 = biological target: T3, SIK2 (Homo sapiens, UniProt Q9H0K1); test: ADP-Glo kinase assay, SIK2
T3 construct: purchased ThermoFisher Scientific PV4792
Procedure, shortened: as §1

T2 sequence (Q9Y2K2 whole entry): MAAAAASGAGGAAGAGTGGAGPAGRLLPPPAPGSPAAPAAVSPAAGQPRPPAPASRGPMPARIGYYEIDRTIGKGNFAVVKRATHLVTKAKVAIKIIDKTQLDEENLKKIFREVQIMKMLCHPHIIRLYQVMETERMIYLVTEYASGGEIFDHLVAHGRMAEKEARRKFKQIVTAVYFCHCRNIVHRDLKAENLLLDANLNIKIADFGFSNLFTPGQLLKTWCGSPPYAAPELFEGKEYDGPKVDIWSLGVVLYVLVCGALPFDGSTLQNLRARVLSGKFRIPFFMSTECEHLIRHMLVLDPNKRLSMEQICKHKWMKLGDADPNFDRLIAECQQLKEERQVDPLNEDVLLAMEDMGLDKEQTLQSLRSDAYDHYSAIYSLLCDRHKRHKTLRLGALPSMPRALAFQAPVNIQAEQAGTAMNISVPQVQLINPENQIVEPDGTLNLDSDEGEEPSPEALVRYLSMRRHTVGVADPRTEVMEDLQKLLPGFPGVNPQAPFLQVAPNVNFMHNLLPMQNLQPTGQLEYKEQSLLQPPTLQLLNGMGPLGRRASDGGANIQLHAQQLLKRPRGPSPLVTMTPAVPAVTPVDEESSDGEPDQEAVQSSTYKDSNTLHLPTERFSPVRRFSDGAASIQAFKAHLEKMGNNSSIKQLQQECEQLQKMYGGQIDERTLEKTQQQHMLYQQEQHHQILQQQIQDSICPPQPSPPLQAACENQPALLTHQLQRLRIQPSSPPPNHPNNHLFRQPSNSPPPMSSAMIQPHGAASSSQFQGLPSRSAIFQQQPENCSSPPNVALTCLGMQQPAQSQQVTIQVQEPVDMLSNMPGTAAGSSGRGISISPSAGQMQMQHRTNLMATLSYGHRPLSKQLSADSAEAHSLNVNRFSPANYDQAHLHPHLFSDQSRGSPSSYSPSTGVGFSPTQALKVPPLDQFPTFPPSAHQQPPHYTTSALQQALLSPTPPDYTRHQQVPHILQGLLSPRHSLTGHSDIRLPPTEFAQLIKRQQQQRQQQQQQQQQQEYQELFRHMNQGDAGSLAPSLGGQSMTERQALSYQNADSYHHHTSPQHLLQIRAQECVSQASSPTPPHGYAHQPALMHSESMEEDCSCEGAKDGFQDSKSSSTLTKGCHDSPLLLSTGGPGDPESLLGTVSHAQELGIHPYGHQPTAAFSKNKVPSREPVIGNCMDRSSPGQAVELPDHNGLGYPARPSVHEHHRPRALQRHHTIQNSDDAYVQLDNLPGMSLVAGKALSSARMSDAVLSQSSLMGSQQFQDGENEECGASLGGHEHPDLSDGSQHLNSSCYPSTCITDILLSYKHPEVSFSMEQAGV
T3 sequence (Q9H0K1 whole entry): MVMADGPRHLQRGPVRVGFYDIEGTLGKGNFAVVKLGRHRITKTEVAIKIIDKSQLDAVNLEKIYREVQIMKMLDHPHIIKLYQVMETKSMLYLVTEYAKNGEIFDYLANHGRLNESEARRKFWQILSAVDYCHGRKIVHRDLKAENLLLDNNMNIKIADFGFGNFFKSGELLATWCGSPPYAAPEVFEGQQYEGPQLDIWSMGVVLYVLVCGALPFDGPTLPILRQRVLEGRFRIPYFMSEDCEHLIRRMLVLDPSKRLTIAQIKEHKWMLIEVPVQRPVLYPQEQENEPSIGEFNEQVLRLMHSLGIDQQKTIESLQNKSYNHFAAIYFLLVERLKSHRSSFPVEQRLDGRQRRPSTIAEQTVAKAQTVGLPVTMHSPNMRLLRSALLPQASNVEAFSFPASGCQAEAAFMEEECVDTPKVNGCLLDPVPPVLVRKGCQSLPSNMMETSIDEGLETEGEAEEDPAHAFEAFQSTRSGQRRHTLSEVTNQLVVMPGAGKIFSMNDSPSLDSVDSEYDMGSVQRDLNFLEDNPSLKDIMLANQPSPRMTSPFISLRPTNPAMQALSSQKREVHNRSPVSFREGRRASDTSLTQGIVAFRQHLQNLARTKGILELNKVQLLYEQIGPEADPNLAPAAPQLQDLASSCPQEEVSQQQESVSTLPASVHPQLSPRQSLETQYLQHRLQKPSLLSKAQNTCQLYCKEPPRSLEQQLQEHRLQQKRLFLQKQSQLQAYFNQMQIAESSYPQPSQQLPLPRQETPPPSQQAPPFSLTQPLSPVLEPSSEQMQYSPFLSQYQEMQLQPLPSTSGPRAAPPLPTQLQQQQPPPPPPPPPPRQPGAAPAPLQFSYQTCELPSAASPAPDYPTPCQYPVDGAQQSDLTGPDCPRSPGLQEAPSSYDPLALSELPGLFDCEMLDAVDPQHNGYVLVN
T1 sequence (P57059 whole entry): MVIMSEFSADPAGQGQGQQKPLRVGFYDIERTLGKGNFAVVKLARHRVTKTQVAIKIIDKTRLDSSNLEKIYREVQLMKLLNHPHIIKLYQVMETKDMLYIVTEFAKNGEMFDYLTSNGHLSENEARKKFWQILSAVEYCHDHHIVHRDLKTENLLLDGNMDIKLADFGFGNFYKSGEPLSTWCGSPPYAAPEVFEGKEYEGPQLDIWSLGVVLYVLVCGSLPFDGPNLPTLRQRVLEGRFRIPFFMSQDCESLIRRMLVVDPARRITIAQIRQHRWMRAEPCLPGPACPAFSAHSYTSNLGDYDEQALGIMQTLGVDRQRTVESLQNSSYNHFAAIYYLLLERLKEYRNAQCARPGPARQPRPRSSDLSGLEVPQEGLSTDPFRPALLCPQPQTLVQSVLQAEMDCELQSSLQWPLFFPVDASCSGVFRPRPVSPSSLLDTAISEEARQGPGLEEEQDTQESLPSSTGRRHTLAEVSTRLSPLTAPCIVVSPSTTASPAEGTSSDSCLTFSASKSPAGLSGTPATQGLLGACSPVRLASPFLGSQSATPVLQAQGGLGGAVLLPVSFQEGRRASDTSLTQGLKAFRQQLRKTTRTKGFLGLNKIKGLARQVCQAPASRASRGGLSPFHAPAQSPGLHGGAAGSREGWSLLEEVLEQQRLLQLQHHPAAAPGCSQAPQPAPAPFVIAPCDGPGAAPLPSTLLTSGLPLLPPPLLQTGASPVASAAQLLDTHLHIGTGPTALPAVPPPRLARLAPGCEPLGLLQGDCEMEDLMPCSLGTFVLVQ

Compound	IC50 (SIK1)	IC50 (SIK3)	IC50 (SIK2)
COc1cc(-c2cnc3cc(OCCN4CCOC(C#N)C4)ccn23)cc(OC(F)F)c1C(=O)NC1CC1 (stereo not drawn) [compound 213, 4-[7-[2-(2-cyanomorpholin-4-yl)ethoxy]imidazo[1,2-a]pyridin-3-yl]-N-cyclopropyl-2-(difluoromethoxy)-6-methoxy-benzamide]	10 to 100 nM	0.01 to 10 nM	0.01 to 10 nM
COc1cc(-c2cnc3cc(OCCN4CCOC(C)C4)ccn23)cc(OC(F)F)c1C(=O)NC1CC1 (stereo not drawn) [compound 214, N-cyclopropyl-2-(difluoromethoxy)-6-methoxy-4-[7-[2-(2-methylmorpholin-4-yl)ethoxy]imidazo[1,2-a]pyridin-3-yl] benzamide]	10 to 100 nM	0.01 to 10 nM	0.01 to 10 nM
COc1cc(-c2cnc3cc(OCCN(C)CC#N)ccn23)cc(OC(F)F)c1C(=O)NC1CC1 [compound 215, 4-[7-[2-[cyanomethyl(methyl)amino]ethoxy]imidazo[1,2-a]pyridin-3-yl]-N-cyclopropyl-2-(difluoromethoxy)-6-methoxy-benzamide]	10 to 100 nM	0.01 to 10 nM	0.01 to 10 nM
COc1cc(-c2cnc3cc(OCCN4CCCC(C#N)C4)ccn23)cc(OC(F)F)c1C(=O)NC1CC1 (stereo not drawn) [compound 216, 4-[7-[2-(3-cyano-1-piperidyl)ethoxy]imidazo [1,2-a]pyridin-3-yl]-N-cyclopropyl-2-(difluoromethoxy)-6-methoxy-benzamide]	0.01 to 10 nM	0.01 to 10 nM	0.01 to 10 nM
COc1cc(-c2cnc3cc(OCCN4CCOCC4)ccn23)cc(C)c1C(=O)NC1CC1 [compound 222, N-cyclopropyl-2-methoxy-6-methyl-4-[7-(2-morpholinoethoxy)imidazo[1,2-a]pyridin-3-yl]benzamide]	> 500 nM	10 to 100 nM	100 to 500 nM
COc1cc(-c2cnc3cc(OCCN(C)c4ccncc4)ccn23)cc(OC(F)F)c1C(=O)NC1CC1 [compound 223, N-cyclopropyl-2-(difluoromethoxy)-6-methoxy-4-[7-[2-[methyl(4-pyridyl)amino]ethoxy]imidazo[1,2-a]pyridin-3-yl]benzamide]	0.01 to 10 nM	0.01 to 10 nM	0.01 to 10 nM
COc1cc(-c2cnc3cc(OCc4cccnn4)ccn23)cc(OC(F)F)c1C(=O)NC1CC1 [compound 226, N-cyclopropyl-2-(difluoromethoxy)-6-methoxy-4-[7-(pyridazin-3-ylmethoxy)imidazo[1,2-a]pyridin-3-yl]benzamide]	10 to 100 nM	0.01 to 10 nM	0.01 to 10 nM
COc1cc(-c2cnc3cc(OCC4CN(C)C(=O)O4)ccn23)cc(OC(F)F)c1C(=O)NC1CC1 (stereo not drawn) [compound 228, N-cyclopropyl-2-(difluoromethoxy)-6-methoxy-4-[7-[(3-methyl-2-oxo-oxazolidin-5-yl)methoxy]imidazo[1,2-a]pyridin-3-yl]benzamide]	0.01 to 10 nM	0.01 to 10 nM	0.01 to 10 nM
COc1cc(-c2cnc3cc(OCc4nc(C)no4)ccn23)cc(OC(F)F)c1C(=O)NC1CC1 [compound 229, N-cyclopropyl-2-(difluoromethoxy)-6-methoxy-4-[7-[(3-methyl-1,2,4-oxadiazol-5-yl)methoxy]imidazo[1,2-a]pyridin-3-yl]benzamide]	10 to 100 nM	0.01 to 10 nM	0.01 to 10 nM
COc1cc(-c2cnc3cc(OCc4noc(C)n4)ccn23)cc(OC(F)F)c1C(=O)NC1CC1 [compound 231, N-cyclopropyl-2-(difluoromethoxy)-6-methoxy-4-[7-[(5-methyl-1,2,4-oxadiazol-3-yl)methoxy]imidazo[1,2-a]pyridin-3-yl]benzamide]	10 to 100 nM	0.01 to 10 nM	0.01 to 10 nM
COc1cc(-c2cnc3cc(OCCN4CCOCC4C)ccn23)cc(OC(F)F)c1C(=O)NC1CC1 (stereo not drawn) [compound 232, N-cyclopropyl-2-(difluoromethoxy)-6-methoxy-4-[7-[2-(3-methylmorpholin-4-yl)ethoxy]imidazo [1,2-a]pyridin-3-yl]benzamide]	10 to 100 nM	0.01 to 10 nM	0.01 to 10 nM
COc1cc(-c2cnc3cc(OCCN(CC(F)F)C4CC4)ccn23)cc(OC(F)F)c1C(=O)NC1CC1 [compound 235, N-cyclopropyl-4-[7-[2-[cyclopropyl (2,2-difluoroethyl)amino]ethoxy]imidazo [1,2-a]pyridin-3-yl]-2-(difluoromethoxy)-6-methoxy-benzamide]	0.01 to 10 nM	0.01 to 10 nM	0.01 to 10 nM
COc1cc(-c2cnc3cc(OCCN(C)CC(F)F)ccn23)cc(OC(F)F)c1C(=O)NC1CC1 [compound 236, N-cyclopropyl-4-[7-[2-[2,2-difluoroethyl(methyl)amino]ethoxy]imidazo[1,2-a]pyridin-3-yl]-2-(difluoromethoxy)-6-methoxy-benzamide]	10 to 100 nM	0.01 to 10 nM	0.01 to 10 nM
COCCN(CCOc1ccn2c(-c3cc(OC)c(C(=O)NC4CC4)c(OC(F)F)c3)cnc2c1)CC(F)F [compound 237, N-cyclopropyl-4-[7-[2-[2,2-difluoroethyl(2-methoxyethyl)amino]ethoxy]imidazo[1,2-a]pyridin-3-yl]-2-(difluoromethoxy)-6-methoxy-benzamide]	10 to 100 nM	0.01 to 10 nM	0.01 to 10 nM
COc1cc(-c2cnc3cc(OCCN(C)c4ncccn4)ccn23)cc(OC(F)F)c1C(=O)NC1CC1 [compound 238, N-cyclopropyl-2-(difluoromethoxy)-6-methoxy-4-[7-[2-[methyl(pyrimidin-2-yl)amino]ethoxy]imidazo [1,2-a]pyridin-3-yl]benzamide]	0.01 to 10 nM	0.01 to 10 nM	0.01 to 10 nM
COc1cc(-c2cnc3cc(OCCN(C)c4ccncn4)ccn23)cc(OC(F)F)c1C(=O)NC1CC1 [compound 239, N-cyclopropyl-2-(difluoromethoxy)-6-methoxy-4-[7-[2-[methyl(pyrimidin-4-yl)amino]ethoxy]imidazo [1,2-a]pyridin-3-yl]benzamide]	0.01 to 10 nM	0.01 to 10 nM	0.01 to 10 nM
COc1cc(-c2cnc3cc(OCCN(C)c4ccnnc4)ccn23)cc(OC(F)F)c1C(=O)NC1CC1 [compound 240, N-cyclopropyl-2-(difluoromethoxy)-6-methoxy-4-[7-[2-[methyl(pyridazin-4-yl)amino]ethoxy]imidazo [1,2-a]pyridin-3-yl]benzamide]	0.01 to 10 nM	0.01 to 10 nM	0.01 to 10 nM
Cc1cc(-c2cnc3cc(OCCN4CCOCC4)ccn23)cc(OC(F)F)c1C(=O)NC1CC1 [compound 241, N-cyclopropyl-2-(difluoromethoxy)-6-methyl-4-[7-(2-morpholinoethoxy)imidazo[1,2-a]pyridin-3-yl]benzamide]	100 to 500 nM	0.01 to 10 nM	10 to 100 nM
Cc1cc(-c2cnc3cc(OCCN4CCOCC4)ccn23)cc(OC(F)F)c1C(=O)NCC(F)(F)F [compound 243, 2-(difluoromethoxy)-6-methyl-4-[7-(2-morpholinoethoxy)imidazo[1,2-a]pyridin-3-yl]-N-(2,2,2-trifluoroethyl)benzamide]	> 500 nM	10 to 100 nM	10 to 100 nM

From patent publication US12264156B2, “Compounds and pharmaceutical compositions thereof for the treatment of diseases” (GALAPAGOS NV, priority 2018, dated 2025)
